According to patent publication US10710978B2, “STK4 inhibitors for treatment of hematologic malignancies” (Dana-Farber Cancer Institute, Inc., priority 2015, dated 2020):
Read-outs that look alike come from different tables or passages of the source.

Tests used:
Assay in all cases: KiNativ assay
Assay type in all cases: binding
Details in all cases: H929 live cell
ABL, ARG = system: ABL, ARG
Protocol: (§1) Biochemical IC50s of the compounds of the present disclosure against various kinases were measured in a KiNativ assay. Compounds were screened in duplicate at 10 μM in H929 live cell. IC50 was measured via Mass spectroscopy (MS).

AurB = AurB (Homo sapiens (Human), UniProt Q96GD4)
Protocol: as §1

CDK7 = CDK7 (Homo sapiens (Human), UniProt P50613)
Protocol: as §1

CaMK1d = CaMK1d (Homo sapiens (Human), UniProt Q8IU85)
Protocol: as §1

EphB2 = EphB2 (Homo sapiens (Human), UniProt P29323)
Protocol: as §1

GCK = GCK (Homo sapiens (Human), UniProt Q12851)
Protocol: as §1

IKKb = IKKb (Homo sapiens (Human), UniProt O14920)
Protocol: as §1

ILK = ILK (Homo sapiens (Human), UniProt Q13418)
Protocol: as §1

IRE1 = IRE1 (Homo sapiens (Human), UniProt O75460)
Protocol: as §1

JAK1 domain2 = JAK1 domain2 (Homo sapiens (Human), UniProt P23458)
Protocol: as §1

LKB1 = LKB1 (Homo sapiens (Human), UniProt Q15831)
Protocol: as §1

MAP2K7 = MAP2K7 (Homo sapiens (Human), UniProt O14733)
Protocol: as §1

MAST3 = MAST3 (Homo sapiens (Human), UniProt O60307)
Protocol: as §1

MLKL = MLKL (Homo sapiens (Human), UniProt Q8NB16)
Protocol: as §1

MSK2 domain1 = MSK2 domain1 (Homo sapiens (Human), UniProt O75676)
Protocol: as §1

MST1 = MST1 (Homo sapiens (Human), UniProt Q13043)
Protocol: as §1

MST1, MST2 = system: MST1, MST2
Protocol: as §1

MST3 = MST3 (Homo sapiens (Human), UniProt Q9Y6E0)
Protocol: as §1

NEK9 = NEK9 (Homo sapiens (Human), UniProt Q8TD19)
Protocol: as §1

NuaK1 = NuaK1 (Homo sapiens (Human), UniProt O60285)
Protocol: as §1

PIK3C3 = PIK3C3 (Homo sapiens (Human), UniProt Q8NEB9)
Protocol: as §1

PKCz = PKCz (Homo sapiens (Human), UniProt Q05513)
Protocol: as §1

PRP4 = PRP4 (Homo sapiens (Human), UniProt Q13523)
Protocol: as §1

PRPK = PRPK (Homo sapiens (Human), UniProt Q96S44)
Protocol: as §1

[1] = system: RSK1 domain1, RSK2 domain1, RSK3 domain1
Protocol: as §1

RSK1 domain2 = RSK1 domain2 (Homo sapiens (Human), UniProt Q15418)
Protocol: as §1

RSK2 domain1 = RSK2 domain1 (Homo sapiens (Human), UniProt P51812)
Protocol: as §1

SLK = SLK (Homo sapiens (Human), UniProt Q9H2G2)
Protocol: as §1

TAO1, TAO3 = system: TAO1, TAO3
Protocol: as §1

TAO2 = TAO2 (Homo sapiens (Human), UniProt Q9UL54)
Protocol: as §1

Wnk1, Wnk2, Wnk3 = system: Wnk1, Wnk2, Wnk3
Protocol: as §1

p70S6K = p70S6K (Homo sapiens (Human), UniProt P23443)
Protocol: as §1

p70S6Kb = p70S6Kb (Homo sapiens (Human), UniProt Q9UBS0)
Protocol: as §1

[2] = range class, read-out: % inhibition

Sequence of NuaK1 (O60285 whole entry): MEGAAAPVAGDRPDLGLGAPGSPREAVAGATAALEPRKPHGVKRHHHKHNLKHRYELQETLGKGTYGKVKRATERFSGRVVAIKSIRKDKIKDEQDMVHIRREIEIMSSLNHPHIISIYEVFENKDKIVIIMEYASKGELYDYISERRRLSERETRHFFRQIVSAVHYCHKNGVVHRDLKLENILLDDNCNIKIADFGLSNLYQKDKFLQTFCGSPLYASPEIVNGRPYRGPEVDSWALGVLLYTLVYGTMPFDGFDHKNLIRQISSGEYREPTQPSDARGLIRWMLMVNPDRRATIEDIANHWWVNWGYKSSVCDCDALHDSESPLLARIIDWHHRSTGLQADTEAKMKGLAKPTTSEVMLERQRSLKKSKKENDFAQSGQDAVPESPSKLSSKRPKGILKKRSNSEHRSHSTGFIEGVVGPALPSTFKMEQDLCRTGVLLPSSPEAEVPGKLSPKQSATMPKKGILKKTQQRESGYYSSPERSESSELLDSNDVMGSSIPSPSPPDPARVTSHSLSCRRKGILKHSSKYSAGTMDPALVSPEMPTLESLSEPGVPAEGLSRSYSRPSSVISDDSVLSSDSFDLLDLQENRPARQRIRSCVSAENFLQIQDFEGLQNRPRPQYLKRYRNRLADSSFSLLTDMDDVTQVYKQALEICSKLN
Sequence of PIK3C3 (Q8NEB9 whole entry): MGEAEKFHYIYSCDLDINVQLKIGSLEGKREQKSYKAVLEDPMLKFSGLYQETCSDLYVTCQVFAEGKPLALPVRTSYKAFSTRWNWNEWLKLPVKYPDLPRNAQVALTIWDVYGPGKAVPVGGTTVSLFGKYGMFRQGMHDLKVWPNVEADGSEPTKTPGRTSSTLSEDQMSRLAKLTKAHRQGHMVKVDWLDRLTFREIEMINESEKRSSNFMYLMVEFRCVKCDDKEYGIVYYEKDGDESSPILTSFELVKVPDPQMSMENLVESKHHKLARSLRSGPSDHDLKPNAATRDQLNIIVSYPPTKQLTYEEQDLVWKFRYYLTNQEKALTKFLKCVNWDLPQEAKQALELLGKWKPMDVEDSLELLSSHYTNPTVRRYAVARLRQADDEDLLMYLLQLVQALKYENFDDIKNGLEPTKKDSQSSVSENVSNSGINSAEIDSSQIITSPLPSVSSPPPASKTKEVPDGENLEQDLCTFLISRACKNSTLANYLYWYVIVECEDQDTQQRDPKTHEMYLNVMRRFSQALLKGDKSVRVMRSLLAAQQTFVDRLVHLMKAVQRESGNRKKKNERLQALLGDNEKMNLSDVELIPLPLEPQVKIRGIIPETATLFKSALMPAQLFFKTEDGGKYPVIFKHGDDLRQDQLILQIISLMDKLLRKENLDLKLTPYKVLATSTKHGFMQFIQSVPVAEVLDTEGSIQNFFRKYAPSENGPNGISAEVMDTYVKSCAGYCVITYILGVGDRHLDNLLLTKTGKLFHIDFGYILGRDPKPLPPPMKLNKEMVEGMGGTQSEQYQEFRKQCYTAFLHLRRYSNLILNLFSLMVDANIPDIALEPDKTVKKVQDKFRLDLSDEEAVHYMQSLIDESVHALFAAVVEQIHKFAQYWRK
Sequence of LKB1 (Q15831 whole entry): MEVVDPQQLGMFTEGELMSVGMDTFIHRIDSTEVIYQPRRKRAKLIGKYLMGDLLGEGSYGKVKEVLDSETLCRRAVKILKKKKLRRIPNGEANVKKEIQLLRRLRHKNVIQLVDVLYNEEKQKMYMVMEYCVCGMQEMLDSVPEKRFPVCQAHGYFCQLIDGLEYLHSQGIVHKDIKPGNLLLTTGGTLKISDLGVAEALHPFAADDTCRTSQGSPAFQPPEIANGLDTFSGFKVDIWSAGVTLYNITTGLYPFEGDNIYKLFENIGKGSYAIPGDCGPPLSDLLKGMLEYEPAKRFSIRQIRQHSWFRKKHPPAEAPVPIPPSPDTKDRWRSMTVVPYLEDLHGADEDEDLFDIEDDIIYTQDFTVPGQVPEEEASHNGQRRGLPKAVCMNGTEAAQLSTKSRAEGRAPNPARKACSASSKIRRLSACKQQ
Sequence of RSK1 domain2 (Q15418 whole entry, the tested form may be a part): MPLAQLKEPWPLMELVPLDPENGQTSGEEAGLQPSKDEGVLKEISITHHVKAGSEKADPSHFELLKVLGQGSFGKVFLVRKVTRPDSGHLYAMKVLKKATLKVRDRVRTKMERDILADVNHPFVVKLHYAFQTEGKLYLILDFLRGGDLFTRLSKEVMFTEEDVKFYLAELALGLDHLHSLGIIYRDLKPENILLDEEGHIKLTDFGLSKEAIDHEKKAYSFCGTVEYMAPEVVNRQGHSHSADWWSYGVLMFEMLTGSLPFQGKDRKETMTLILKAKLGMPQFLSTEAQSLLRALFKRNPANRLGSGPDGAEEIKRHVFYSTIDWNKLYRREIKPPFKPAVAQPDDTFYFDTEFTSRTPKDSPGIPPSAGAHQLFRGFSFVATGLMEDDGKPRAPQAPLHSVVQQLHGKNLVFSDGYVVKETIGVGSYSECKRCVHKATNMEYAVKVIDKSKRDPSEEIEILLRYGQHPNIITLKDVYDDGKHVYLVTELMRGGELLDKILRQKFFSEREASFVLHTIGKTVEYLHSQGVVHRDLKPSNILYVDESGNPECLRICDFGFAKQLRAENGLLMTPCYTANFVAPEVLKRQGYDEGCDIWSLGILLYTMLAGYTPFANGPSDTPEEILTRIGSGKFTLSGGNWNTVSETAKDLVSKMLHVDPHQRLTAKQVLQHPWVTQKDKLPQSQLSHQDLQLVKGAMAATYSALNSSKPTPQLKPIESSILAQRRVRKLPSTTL
Sequence of AurB (Q96GD4 whole entry): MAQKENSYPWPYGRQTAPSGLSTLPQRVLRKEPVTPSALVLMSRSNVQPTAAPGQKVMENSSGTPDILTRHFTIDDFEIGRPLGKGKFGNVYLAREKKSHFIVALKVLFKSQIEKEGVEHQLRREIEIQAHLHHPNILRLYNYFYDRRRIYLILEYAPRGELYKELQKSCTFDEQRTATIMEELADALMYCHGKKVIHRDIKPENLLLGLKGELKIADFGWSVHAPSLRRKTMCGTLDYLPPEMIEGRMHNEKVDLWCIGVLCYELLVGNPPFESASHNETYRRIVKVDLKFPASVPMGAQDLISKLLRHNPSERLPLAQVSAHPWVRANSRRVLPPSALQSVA
Sequence of RSK2 domain1 (P51812 whole entry, the tested form may be a part): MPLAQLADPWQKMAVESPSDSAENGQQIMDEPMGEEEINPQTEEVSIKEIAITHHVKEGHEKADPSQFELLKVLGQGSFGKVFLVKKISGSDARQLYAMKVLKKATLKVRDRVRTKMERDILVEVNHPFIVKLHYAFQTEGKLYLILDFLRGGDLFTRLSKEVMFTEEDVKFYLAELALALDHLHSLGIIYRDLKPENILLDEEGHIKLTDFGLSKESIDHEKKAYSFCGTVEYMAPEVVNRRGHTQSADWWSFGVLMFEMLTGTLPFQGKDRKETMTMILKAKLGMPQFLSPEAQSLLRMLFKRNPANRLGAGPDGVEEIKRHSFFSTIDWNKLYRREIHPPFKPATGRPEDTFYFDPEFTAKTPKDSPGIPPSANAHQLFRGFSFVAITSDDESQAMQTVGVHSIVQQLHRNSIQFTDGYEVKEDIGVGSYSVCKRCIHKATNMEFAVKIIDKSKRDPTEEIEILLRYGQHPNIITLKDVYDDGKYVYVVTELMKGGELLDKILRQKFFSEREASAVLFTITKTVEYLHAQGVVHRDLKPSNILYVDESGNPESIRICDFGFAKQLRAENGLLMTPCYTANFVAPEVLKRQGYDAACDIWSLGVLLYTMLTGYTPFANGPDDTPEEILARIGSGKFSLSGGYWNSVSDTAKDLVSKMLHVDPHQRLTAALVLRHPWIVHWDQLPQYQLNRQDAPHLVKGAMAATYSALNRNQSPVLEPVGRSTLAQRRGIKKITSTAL
Sequence of MST3 (Q9Y6E0 whole entry): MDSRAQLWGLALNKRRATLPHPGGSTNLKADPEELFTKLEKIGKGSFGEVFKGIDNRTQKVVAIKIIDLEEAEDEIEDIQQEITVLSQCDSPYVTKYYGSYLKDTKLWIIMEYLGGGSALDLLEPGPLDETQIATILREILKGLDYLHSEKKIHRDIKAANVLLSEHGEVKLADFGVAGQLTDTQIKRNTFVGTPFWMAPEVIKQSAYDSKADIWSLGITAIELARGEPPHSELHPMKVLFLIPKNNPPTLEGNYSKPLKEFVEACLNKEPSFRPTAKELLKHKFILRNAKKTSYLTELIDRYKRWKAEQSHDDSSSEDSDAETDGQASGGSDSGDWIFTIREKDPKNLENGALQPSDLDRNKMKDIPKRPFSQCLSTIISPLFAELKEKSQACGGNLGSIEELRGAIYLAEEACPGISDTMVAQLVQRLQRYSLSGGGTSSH
Sequence of MSK2 domain1 (O75676 whole entry, the tested form may be a part): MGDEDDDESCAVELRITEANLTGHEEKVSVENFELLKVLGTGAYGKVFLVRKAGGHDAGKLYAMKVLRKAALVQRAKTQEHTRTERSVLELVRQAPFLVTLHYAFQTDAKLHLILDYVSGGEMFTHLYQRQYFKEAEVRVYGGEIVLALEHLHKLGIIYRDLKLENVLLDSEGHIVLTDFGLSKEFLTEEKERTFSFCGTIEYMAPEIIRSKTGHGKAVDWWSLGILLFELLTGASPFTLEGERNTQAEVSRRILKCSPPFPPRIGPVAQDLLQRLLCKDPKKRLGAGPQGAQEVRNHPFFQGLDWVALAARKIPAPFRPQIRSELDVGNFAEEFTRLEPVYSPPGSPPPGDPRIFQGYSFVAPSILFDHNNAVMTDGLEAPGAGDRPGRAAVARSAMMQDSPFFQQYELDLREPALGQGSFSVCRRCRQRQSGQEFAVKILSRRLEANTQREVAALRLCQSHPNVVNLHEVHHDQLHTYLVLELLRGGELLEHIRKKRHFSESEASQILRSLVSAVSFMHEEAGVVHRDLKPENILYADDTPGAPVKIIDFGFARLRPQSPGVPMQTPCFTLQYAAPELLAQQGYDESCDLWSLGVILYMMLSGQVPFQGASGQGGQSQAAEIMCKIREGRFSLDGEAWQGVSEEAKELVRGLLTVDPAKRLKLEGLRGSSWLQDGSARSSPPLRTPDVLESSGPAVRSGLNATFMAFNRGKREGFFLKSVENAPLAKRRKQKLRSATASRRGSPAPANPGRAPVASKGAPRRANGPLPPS

For `Nc1ncc(-c2ccc(NS(=O)(=O)C3CC3)cc2OC2CCCCC2)cc1-c1ccc2c(c1)CCNC2=O` [Compound I-65, N-(4-(6-amino-5-(1-oxo-1,2,3,4-tetrahydroisoquinolin-6-yl)pyridin-3-yl)-3-(cyclohexyloxy)phenyl) cyclopropanesulfonamide], the “% inhibition” value (ABL, ARG; 10 μM, range class) was 0.0%, the “inhibition (10 μM)” value (ABL, ARG) was −2.8% and the inhibition at 10 µM (AurB; [2]) was 0%. It also gave an inhibition at 10 µM (AurB; read-out: inhibition (10 μM)) of 21%, an inhibition at 10 µM (CDK7; [2]) of 0% and an inhibition at 10 µM (CDK7; read-out: inhibition (10 μM)) of 29.9%. It also gave an inhibition at 10 µM (CaMK1d; [2]) of 0%, an inhibition at 10 µM (CaMK1d; read-out: inhibition (10 μM)) of 0.4% and an inhibition at 10 µM (EphB2; [2]) of 0%. The inhibition at 10 µM (EphB2; read-out: inhibition (10 μM)) was 20.3%, the inhibition at 10 µM (GCK; [2]) was greater than 90% and the inhibition at 10 µM (GCK; read-out: inhibition (10 μM)) was 92.5%. For the same molecule, the inhibition at 10 µM (IKKb; [2]) was 0%, the inhibition at 10 µM (IKKb; read-out: inhibition (10 μM)) was -36% and the inhibition at 10 µM (ILK; [2]) was 0%. For the same molecule, the inhibition at 10 µM (ILK; read-out: inhibition (10 μM)) was -35%, the inhibition at 10 µM (IRE1; [2]) was 0% and the inhibition at 10 µM (IRE1; read-out: inhibition (10 μM)) was -6.3%. For the same molecule, the inhibition at 10 µM (JAK1 domain2; [2]) was 0%, the inhibition at 10 µM (JAK1 domain2; read-out: inhibition (10 μM)) was 10.1% and the inhibition at 10 µM (LKB1; [2]) was 0%. For the same molecule, the inhibition at 10 µM (LKB1; read-out: inhibition (10 μM)) was 27.4%, the inhibition at 10 µM (MAP2K7; [2]) was 0% and the inhibition at 10 µM (MAP2K7; read-out: inhibition (10 μM)) was 3.3%. For the same molecule, the inhibition at 10 µM (MAST3; [2]) was 0%, the inhibition at 10 µM (MAST3; read-out: inhibition (10 μM)) was -7.5% and the inhibition at 10 µM (MLKL; [2]) was 0%. The inhibition at 10 µM (MLKL; read-out: inhibition (10 μM)) was 0.2%, the inhibition at 10 µM (MSK2 domain1; [2]) was 0% and the inhibition at 10 µM (MSK2 domain1; read-out: inhibition (10 μM)) was -83.6%. For the same molecule, the inhibition at 10 µM (MST1; [2]) was greater than 90%, the inhibition at 10 µM (MST1; read-out: inhibition (10 μM)) was 96.7% and the “% inhibition” value (MST1, MST2; 10 μM, range class) was greater than 90%. The “inhibition (10 μM)” value (MST1, MST2) was 98.7%, the inhibition at 10 µM (MST3; [2]) was 0% and the inhibition at 10 µM (MST3; read-out: inhibition (10 μM)) was 31.5%. The inhibition at 10 µM (NEK9; [2]) was 0%, the inhibition at 10 µM (NEK9; read-out: inhibition (10 μM)) was -27.8% and the “inhibition (10 μM)” value (NuaK1) was 61.5%. The inhibition at 10 µM (NuaK1; [2]) was 50 to 75%, the inhibition at 10 µM (NuaK1; read-out: inhibition (10 μM)) was 66.8% and the inhibition at 10 µM (PIK3C3; [2]) was 0%. The inhibition at 10 µM (PIK3C3; read-out: inhibition (10 μM)) was -15%, the inhibition at 10 µM (PKCz; [2]) was 0% and the inhibition at 10 µM (PKCz; read-out: inhibition (10 μM)) was -12.4%. For the same molecule, the inhibition at 10 µM (PRP4; [2]) was 0%, the inhibition at 10 µM (PRP4; read-out: inhibition (10 μM)) was -19.3% and the inhibition at 10 µM (PRPK; [2]) was 0%. The inhibition at 10 µM (PRPK; read-out: inhibition (10 μM)) was -55.9%, the “% inhibition” value ([1]; 10 μM, range class) was 50-75% and the “inhibition (10 μM)” value [1] was 68.4%. It also gave an inhibition at 10 µM (RSK1 domain2; [2]) of 0%, an inhibition at 10 µM (RSK1 domain2; read-out: inhibition (10 μM)) of -0.7% and an inhibition at 10 µM (RSK2 domain1; [2]) of 75 to 90%. For the same molecule, the inhibition at 10 µM (RSK2 domain1; read-out: inhibition (10 μM)) was 79.4%, the inhibition at 10 µM (SLK; [2]) was greater than 90% and the inhibition at 10 µM (SLK; read-out: inhibition (10 μM)) was 97.8%. For the same molecule, the “% inhibition” value (TAO1, TAO3; 10 μM, range class) was 0.0%, the “inhibition (10 μM)” value (TAO1, TAO3) was 14.4% and the inhibition at 10 µM (TAO2; [2]) was 0%. The inhibition at 10 µM (TAO2; read-out: inhibition (10 μM)) was 8.3%, the “% inhibition” value (Wnk1, Wnk2, Wnk3; 10 μM, range class) was 0.0% and the “inhibition (10 μM)” value (Wnk1, Wnk2, Wnk3) was −8.3%. It also gave an inhibition at 10 µM (p70S6K; [2]) of 0%, an inhibition at 10 µM (p70S6K; read-out: inhibition (10 μM)) of 11.1% and an inhibition at 10 µM (p70S6Kb; [2]) of 0%. It also gave an inhibition at 10 µM (p70S6Kb; read-out: inhibition (10 μM)) of 32%.
